Measured values taken from patent US20180271863A1, “TARGETING P2 PURINERGIC RECEPTORS TO TREAT HEPATOCELLULAR CARCINOMA (HCC)” (Baylor College of Medicine, priority 2015, published 2018).

Legend:
Type in all cases: cell-based, human
Huh7 cells [1] = assay: MTT assay of cell proliferation and viability, Huh7; details: ATP 100 μM, 18 h
Description: (§1) Normal human primary hepatocytes isolated from healthy adults (no known history of HCC) in suspension or freshly-frozen prior to shipment (Cryoport Systems, CA) were purchased from Triangle Research Labs, NC. Fresh hepatocytes were plated on collagen-coated tissue culture plates or glass coverslips in Williams E complete media with additives (10% fetal bovine serum, 2 mM glutamine, […] insulin, 4 ng/ml glucagon, […] transferrin, 2.5 ng/ml sodium selenite, 10,000 U/ml penicillin, […] streptomycin, 50 g/ml gentamycin) for 3 h to ensure hepatocyte adherence to plates. Subsequently, hepatocytes were maintained in Williams E minimal media free from serum and growth factors for 24 h prior to treatment. Human hepatocellular carcinoma derived Huh7, and Hep3B, were cultured in Minimum Essential Medium Eagle (MEM); SNU-387 was cultured in Roswell Park Memorial Institute (RPMI) medium and PLC/PRF/5 cultured in Dulbecco's Modified Eagle's medium (DMEM). All maintenance culture media were supplemented with 10% fetal bovine serum (FBS), L-Glutamine (2 mM), penicillin (100 units/ml) and streptomycin ([…]) at 37° C. and 5% CO2. […]
(§2) Cell viability was determined using the 3-(4, 5-dimethylthiazol-2-yl)-2,5-diphenyltetrazolium (MTT, Sigma) assays. […] After shaking the plates for 30 min, the absorbance at 570 nm was measured (background subtraction at […]).

PLC/PRF/5 cells [2] = assay: Western blotting of cyclin D3 in PLC/PRF/5 cells; details: ATP 24 hours, serum-free
Description: HCC cells (Huh7, Hep3B, SNU-387, and PLC/PRF/5) maintained in serum-free conditions were treated with ATP for 24 hours and total protein extracts were analyzed by Western blotting for cyclin D3 expression. The α-tubulin was utilized as the protein loading control. Data represents mean±SD, n=3-6, *p<0.05 vs untreated (un).
Normal human primary hepatocytes isolated from healthy adults (no known history of HCC) in suspension or freshly-frozen prior to shipment (Cryoport Systems, CA) were purchased from Triangle Research Labs, NC. […]
Total protein extracts were obtained by homogenizing cells in total lysis buffer (50 mM Tris-HCl, pH 7.5, 0.5 M NaCl, 2 mM EGTA, 2 mM EDTA, 1.0% Triton X-100, 0.25% Deoxycholate, 1 m/ml pepstatin, 1.0 m/ml leupeptin, 1.0 m/ml aprotinin, 1.0 mM phenylmethylsulfonyl fluoride, 1.0 mM Dithiothreitol, 2.0 mM activated Na3VO4, and 2.0 mM NaF) and centrifuging at 14,000 rpm for 10 min (4° C.). Equal amounts of total proteins as determined by BCA protein Assay (Pierce, Rockford, Ill.) were analyzed by Western blotting. […]

PLC/PRF/5 cells [3] = assay: MTT assay of cell proliferation and viability, PLC/PRF/5; details: ATP 100 μM, 18 h
Description: as §1, §2

SNU-387 cells [4] = assay: MTT assay of cell proliferation and viability, SNU-387; details: ATP 100 μM, 18 h
Description: as §1, §2

SNU-387 cells [5] = assay: BrdU incorporation (proliferation) in SNU-387 cells; details: SFM 24 hours, ATP 24 hours
Description: To determine whether P2 purinergic receptor activation influences HCC cell proliferation, BrdU incorporation was assessed in HCC cells maintained in SFM for 24 hours and treated with ATP for 24 hours. ATP treatment alone was sufficient to induce proliferation in each of these cell lines (Huh7, 34%; Hep3B, 46%; SNU-387, 47% and PLC/PRF/5, 24%), identifying nucleotides as liver cancer cell mitogens (FIG. 7A).
Normal human primary hepatocytes isolated from healthy adults (no known history of HCC) in suspension or freshly-frozen prior to shipment (Cryoport Systems, CA) were purchased from Triangle Research Labs, NC. Fresh hepatocytes were plated on collagen-coated tissue culture plates or glass coverslips in Williams E complete media with additives (10% fetal bovine serum, 2 mM glutamine, […] insulin, 4 ng/ml glucagon, […] transferrin, 2.5 ng/ml sodium selenite, 10,000 U/ml penicillin, […] streptomycin, 50 g/ml gentamycin) for 3 h to ensure hepatocyte adherence to plates. […]
Formalin-fixed and paraffin embedded liver sections from HCC patients were analyzed by immunohistochemistry with anti-P2X3 antibody (Abcam, Cambridge, Mass.). […] BrdU positive cells were counted and expressed as a percentage of the total number of cells in ten randomly selected high-power fields (20×) per coverslips.

Huh7 cells [6] = assay: Western blotting for JNK phosphorylation in Huh7 cells; details: 100 μM, 15 min
Description: Applicants have previously shown that extracellular nucleotide-mediated activation of JNK signaling induces cell-cycle progression and proliferation of rat primary hepatocytes in vitro. To determine whether extracellular nucleotides induce JNK signaling in transformed hepatocytes, Huh7 cells were treated with nucleotides for 5, 15 and 30 min and total protein extracts were analyzed by Western blotting for JNK phosphorylation (Ser^Thr/Tyi). ATPγS treatment alone was sufficient to induce JNK phosphorylation as early as 15 min (1.7 fold) (FIG. 10A). […] Total protein extracts were obtained by homogenizing cells in total lysis buffer (50 mM Tris-HCl, pH 7.5, 0.5 M NaCl, 2 mM EGTA, 2 mM EDTA, 1.0% Triton X-100, 0.25% Deoxycholate, 1 m/ml pepstatin, 1.0 m/ml leupeptin, 1.0 m/ml aprotinin, 1.0 mM phenylmethylsulfonyl fluoride, 1.0 mM Dithiothreitol, 2.0 mM activated Na3VO4, and 2.0 mM NaF) and centrifuging at 14,000 rpm for 10 min (4° C.). Equal amounts of total proteins as determined by BCA protein Assay (Pierce, Rockford, Ill.) were analyzed by Western blotting. Blots were probed with antibody specific for a-tubulin or GAPDH to ensure equal loading of proteins in each lane.

| SMILES | increase in cell proliferation and viability (MTT) (Huh7 cells [1]) [%] | cyclin D3 protein expression (PLC/PRF/5 cells [2]) [fold] | increase in cell proliferation and viability (MTT) (PLC/PRF/5 cells [3]) [%] | increase in cell proliferation and viability (MTT) (SNU-387 cells [4]) [%] | proliferation (BrdU incorporation) induced by ATP (SNU-387 cells [5]) [%] | JNK phosphorylation (Huh7 cells [6]) [fold] |
| --- | --- | --- | --- | --- | --- | --- |
| Nc1ncnc2c1ncn2[C@@H]1O[C@H](COP(=O)(O)OP(=O)(O)OP(=O)(O)O)[C@@H](O)[C@H]1O [ATP] | 65 | 1.4 | 43 | 90 | 47 |  |
| Nc1ncnc2c1ncn2[C@@H]1O[C@H](COP(=O)(O)OP(=O)(O)OP(O)(O)=S)[C@@H](O)[C@H]1O [ATPγS] |  |  |  |  |  | 1.7 |
